Assay results published in patent US20220233624A9, “ANTI-CANCER AND ANTI-PROLIFERATIVE COMPOSITIONS, AND METHODS FOR THEIR USE IN TREATING CANCER” (Natreon, Inc., priority 2020, published 2022).
Where “and” joins values, the source holds several entries; their conditions need not be identical. Equal entries are not always repeated. Where two headings read alike, the source gives them in different places.

Columns and labels:
[1] = tested on: Glioma PDCs (Glioblastoma Grade IV); test: Anti-proliferation assay (CellTiterGlo, 72 h) on glioma PDCs; assay type: cell-based, human; conditions: drug alone @ 10 uM; for inhibition at 10 µM: Homo sapiens
Description: The outermost rows/columns of the plates were filled with PBS (pH 7.4) to avoid an edge-effect and were considered as blanks. Standardized aqueous extracts identified in Table 2 were prepared in main stock solutions by dissolving 1 mg of extract in 1 ml PBS (phosphate-buffered saline, pH 7.4). […] The plate was incubated in a CO2 incubator for 0/N incubation for 24 hours. […] Once extracts were added to incubated cells and mixed gently, the plate was given a brief spin and incubated in the CO2 incubator for 72 hours. The plate was removed from the incubator and 10 ul of detection reagent (CellTiterGlo®; Promega Corporation, Wisconsin, USA) added to each well of the 384 well plate. […] The assay described above is a two-dimensional (2D) assay.

[2] = tested on: TN Breast Cancer cell line MDAMB-231; test: Anti-proliferation assay on MDAMB-231 cells (72 h and 120 h); assay type: cell-based; conditions: Homo sapiens, MDA-MB-231, 10 uM
Description: Also, AyuFlex®, Capros®, and Ayuric® were tested in the anti-proliferative assay discussed above in the TN Breast Cancer cell line MDAMB-231. AyuFlex®, Capros®, and Ayuric® were incubated for 72 hours and 120 hours. The dose-response efficacy of AyuFlex®, Capros®, and Ayuric® after a 72-hour period of incubation was similar to that observed after a 120-hour period of incubation with the MDAMB-231 cells. Without being bound by theory, possibly this was due to saturation of cell growth at the 120-hour time-point.

[3] = tested on: Ovarian cancer (OVCAR-3) cells; test: Anti-proliferation assay on ovarian cancer cells; assay type: cell-based; conditions: Homo sapiens
Description: Cells were plated at 1.25 k/well in 384 well plates. […] Anti-proliferative assays were generally performed as discussed in Example I above, in triplicate, with detection reagent CellTiterGlo. Tables 80-82 show data for controls for assays on prostate cancer (PC-3 cells), and that the data passed quality control parameters. Tables 83-85 show data for controls for assays on ovarian cancer (OVCAR-3 cells), and that the data passed quality control parameters.

[4] = tested on: SHP-77 (small cell lung cancer) cells; test: Anti-proliferation assay on small cell lung cancer cells; assay type: cell-based; conditions: Homo sapiens, SHP77
Description: SHP-77 (small cell lung cancer) cells were incubated for 72 hours with 100 ug/ml, 30 ug/ml, and 10 ug/ml each of AyuFlex®, Capros® Phyto-BGS®, PrimaVie®, Sensoril®, Ayuric®, and Crominex®, and tested according to the anti-proliferative assay described above. Cells were plated at 1.25 k/well in 384 well plates. Standard of care drug docetaxel was also tested at a 10 uM concentration as a control. Anti-proliferative assays were generally performed as discussed above, in triplicate, with detection reagent CellTiterGlo® as discussed for instance in Example I. Tables 77-79 show data for controls and that the data passed quality control parameters.

[5] = tested on: TN breast cancer PDCs SB 30750; test: Anti-proliferation assay on TN breast cancer PDCs SB 30750; assay type: cell-based; conditions: Homo sapiens
Description: In this Example, AyuFlex®, Capros®, and Ayuric® were each applied to different PDCs than previous tests, TN breast cancer PDCs SB 30750, and tested via the anti-proliferation assay described above. […] Incubation times were 72 hours.

[6] = tested on: Non-small cell lung cancer cells (cell line NCI-H-358); test: Anti-proliferation assay on non-small cell lung cancer cells; assay type: cell-based; conditions: Homo sapiens, NCI-H358
Description: Anti-proliferative and anti-cancer activity of extracts of this invention on non-small cell lung cancer cells and colon cancer cells were assessed generally as described in Example I and are discussed below. […] As noted throughout this application, the below data is intended to describe the present invention but not to be limiting.
Non-small cell lung cancer cells (cell line NCI-H-358) and colon cancer cells (cell line HT-29) were plated in a 384-well plate in amounts of about 1.25 k cells/well. […] Wells with untreated cells and with plain media were also included as controls. Plates passed quality control parameters.

[7] = 10 uM, 72 h, read-out: % Inhibition Average (SD)
[8] = 10 uM, 72 h, read-out: % Inhibition n1
[9] = 10 uM, 72 h, read-out: % Inhibition n2
[10] = 10 uM, 72 h, read-out: % Inhibition n3
[11] = drug 10 uM, read-out: inhibition

**Q.** Which results are given for `COc1cccc2c1C(=O)c1c(O)c3c(c(O)c1C2=O)C[C@@](O)(C(=O)CO)C[C@@H]3O[C@H]1C[C@H](N)[C@H](O)[C@H](C)O1` [Doxorubicin, doxorubicin]?
**A.** inhibition at 10 µM ([1]; read-out: % Inhibition Avg): 82%; inhibition at 10 µM ([1]; read-out: % Inhibition, single replicates): 81%; % Inhibition Avg ([1]; 10 µM): 97%; % Inhibition, single replicates ([1]; 10 µM): 83% and 98% and 97% and 96%; inhibition at 10 µM ([2]; 72 hour incubation, read-out: % Inhibition Avg): 75%; inhibition at 10 µM ([2]; 72 hour incubation, read-out: % Inhibition n1): 78%; inhibition at 10 µM ([2]; 72 hour incubation, read-out: % Inhibition n2): 73%; inhibition at 10 µM ([2]; 72 hour incubation, read-out: % Inhibition n3): 73%; inhibition at 10 µM ([2]; 120 hour incubation, read-out: % Inhibition Avg): 92%; inhibition at 10 µM ([2]; 120 hour incubation, read-out: % Inhibition n1): 94%; inhibition at 10 µM ([2]; 120 hour incubation, read-out: % Inhibition n2): 91%; inhibition at 10 µM ([2]; 120 hour incubation, read-out: % Inhibition n3): 92%; inhibition at 10 µM [3, 7]: 76%; inhibition at 10 µM [3, 8]: 74%; inhibition at 10 µM [3, 9]: 75%; inhibition at 10 µM [3, 10]: 79%; inhibition at 10 µM [3, 11]: 76%; inhibition at 10 µM [4, 7]: 93%; inhibition at 10 µM [4, 8]: 94%; inhibition at 10 µM [4, 9]: 93%; inhibition at 10 µM [4, 10]: 93%; inhibition at 10 µM [4, 11]: 93%; inhibition at 10 µM ([5]; 10 uM, 72 h, read-out: % Inhibition Avg): 68%; inhibition at 10 µM [5, 8]: 78%; inhibition at 10 µM [5, 9]: 68%; inhibition at 10 µM [5, 10]: 58%; inhibition at 10 µM ([5]; read-out: % Inhibition Average (SD)): 68%; inhibition at 10 µM ([5]; read-out: % Inhibition n1): 78%; inhibition at 10 µM ([5]; read-out: % Inhibition n2): 68%; inhibition at 10 µM ([5]; read-out: % Inhibition n3): 58%; inhibition at 10 µM ([6]; drug 10 uM, read-out: inhibition of proliferation): 78%; inhibition at 10 µM ([6]; plate control @ 10 uM, read-out: % Inhibition Average (SD)): 78%; inhibition at 10 µM ([6]; plate control @ 10 uM, read-out: % Inhibition n1): 79%; inhibition at 10 µM ([6]; plate control @ 10 uM, read-out: % Inhibition n2): 77%; inhibition at 10 µM ([6]; plate control @ 10 uM, read-out: % Inhibition n3): 77%
